For six compounds, IC50 results are on record in patent US7834028B2, “Pyrazolo-tetrahydro pyridine derivatives as orexin receptor antagonists” (Actelion Pharmaceuticals Ltd., priority 2006, dated 2010).

SMILES strings stand for the structures.

One assay concerns the target T1, human orexin-2 receptor (Homo sapiens, UniProt O43614).
T1 construct: expressed in transfected cells; host or cells: CHO cells (G418 selection)
T1 sequence (O43614 1-444): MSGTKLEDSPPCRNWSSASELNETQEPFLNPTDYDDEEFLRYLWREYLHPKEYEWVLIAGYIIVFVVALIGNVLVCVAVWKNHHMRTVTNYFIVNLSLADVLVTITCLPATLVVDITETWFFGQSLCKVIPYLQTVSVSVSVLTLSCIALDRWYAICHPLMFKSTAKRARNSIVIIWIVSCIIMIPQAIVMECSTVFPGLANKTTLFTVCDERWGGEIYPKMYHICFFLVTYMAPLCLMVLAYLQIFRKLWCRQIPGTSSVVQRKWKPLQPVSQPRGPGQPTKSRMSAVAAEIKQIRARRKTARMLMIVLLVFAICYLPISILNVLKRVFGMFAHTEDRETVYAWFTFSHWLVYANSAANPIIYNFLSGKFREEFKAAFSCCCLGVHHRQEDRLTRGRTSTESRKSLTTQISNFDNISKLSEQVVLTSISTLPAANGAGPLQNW
In words: Intracellular calcium measurements (FLIPR), orexin-A induced, CHO cells expressing human orexin-2 receptor. Format: cell-based. To be noted: 10 nM orexin-A as agonist, read-out: IC50 OX2. On the procedure: (§1) The orexin receptor antagonistic activity of the compounds of formula (I) and/or (Ia) is determined in accordance with the following experimental method.
(§2) Intracellular Calcium Measurements:
(§3) Chinese hamster ovary (CHO) cells expressing the human orexin-1 receptor and the human orexin-2 receptor, respectively, are grown in culture medium (Ham F-12 with L-Glutamine) containing 300 μg/ml G418, 100 U/ml penicillin, 100 μg/ml streptomycin and 10% inactivated fetal calf serum (FCS). The cells are seeded at 80'000 cells/well into 96-well black clear bottom sterile plates (Costar) which have been precoated with 1% gelatine in Hanks' Balanced Salt Solution (HBSS). All reagents are from Gibco BRL. The seeded plates are incubated overnight at 37° C. in 5% CO2.
(§4) Human orexin-A as an agonist is prepared as 1 mM stock solution in methanol:water (1:1), diluted in HBSS containing 0.1% bovine serum albumin (BSA) and 2 mM HEPES for use in the assay at a final concentration of 10 nM.
(§5) Antagonists are prepared as 10 mM stock solution in DMSO, then diluted in 96-well plates, first in DMSO, then in HBSS containing 0.1% bovine serum albumin (BSA) and 2 mM HEPES.
(§6) On the day of the assay, 100 μl of loading medium (HBSS containing 1% FCS, 2 mM HEPES, 5 mM probenecid (Sigma) and 3 μM of the fluorescent calcium indicator fluo-3 AM (1 mM stock solution in DMSO with 10% pluronic acid) (Molecular Probes) is added to each well.
(§7) The 96-well plates are incubated for 60 min at 37° C. in 5% CO2. The loading solution is then aspirated and cells are washed 3 times with 200 μl HBSS containing 2.5 mM probenecid, 0.1% BSA, 2 mM HEPES. 100 μl of that same buffer is left in each well.
(§8) Within the Fluorescent Imaging Plate Reader (FLIPR, Molecular Devices), antagonists are added to the plate in a volume of 50 μl, incubated for 20 min and finally 100 μl of agonist is added. Fluorescence is measured for each well at 1 second intervals, and the height of each fluorescence peak is compared to the height of the fluorescence peak induced by 10 nM orexin-A with buffer in place of antagonist. For each antagonist, IC50 value (the concentration of compound needed to inhibit 50% of the agonistic response) is determined. Antagonistic activities of compounds are in the nanomolar range with respect to OX1 and OX2 receptors.

Another assay addresses T2, human orexin-1 receptor (Homo sapiens, UniProt O43613).
T2 construct: expressed in transfected cells; host or cells: CHO cells (G418 selection)
T2 sequence (O43613 1-425): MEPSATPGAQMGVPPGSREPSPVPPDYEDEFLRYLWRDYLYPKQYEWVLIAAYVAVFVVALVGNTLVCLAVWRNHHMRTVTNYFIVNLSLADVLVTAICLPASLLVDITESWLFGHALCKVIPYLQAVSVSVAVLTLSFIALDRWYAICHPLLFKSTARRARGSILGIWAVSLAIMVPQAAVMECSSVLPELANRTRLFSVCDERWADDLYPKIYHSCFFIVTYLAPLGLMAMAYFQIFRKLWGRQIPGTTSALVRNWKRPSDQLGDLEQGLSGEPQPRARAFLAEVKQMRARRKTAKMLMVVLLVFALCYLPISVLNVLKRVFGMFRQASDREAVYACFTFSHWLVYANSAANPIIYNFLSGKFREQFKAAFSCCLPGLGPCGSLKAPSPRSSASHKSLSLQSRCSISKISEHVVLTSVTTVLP
In words: Intracellular calcium measurements (FLIPR), orexin-A induced, CHO cells expressing human orexin-1 receptor. Format: cell-based. To be noted: 10 nM orexin-A as agonist, read-out: IC50 OX1. On the procedure:
as §1, §2, §3, §4, §5, §6, §7, §8
(Calcium flux is commonly read through the fluorescence of an indicator in the cells.)

In general, IC50 refers to the concentration that gives 50% inhibition. Consider `CCn1nc(C)c2c1CCN([C@@H](C(=O)NC)c1ccccc1)[C@H]2CCc1ccc(C)cc1` (stereo in doubt) [Example 6, 2-[1-Ethyl-3-methyl-4-(2-p-tolyl-ethyl)-1,4,6,7-tetrahydro-pyrazolo[4,3-c]pyridin-5-yl]-N-methyl-2-phenyl-acetamide], for which the concentration for half-maximal inhibition (IC50) was determined as 4 nM on human orexin-2 receptor and 75 nM at human orexin-1 receptor.
On the same counts, the results for `CCn1nc(C)c2c1CCN([C@@H](C(=O)NC)c1ccccc1)[C@H]2CCc1ccc(C)c(C)c1` [Example 33, 2-{4-[2-(3,4-Dimethyl-phenyl)-ethyl]-1-ethyl-3-methyl-1,4,6,7-tetrahydro-pyrazolo[4,3-c]pyridin-5-yl}-N-methyl-2-phenyl-acetamide] are 4 nM and 20 nM.
As for `CCn1nc(C)c2c1CCN([C@@H](C(=O)NC)c1ccccc1)[C@H]2CCc1ccc(C(F)(F)F)cc1F` [Example 31, 2-{1-Ethyl-4-[2-(2-fluoro-4-trifluoromethyl-phenyl)-ethyl]-3-methyl-1,4,6,7-tetrahydro-pyrazolo[4,3-c]pyridin-5-yl}-N-methyl-2-phenyl-acetamide], the half-inhibitory concentration (IC50) at human orexin-2 receptor turned out to be 8 nM; on human orexin-1 receptor, 52 nM.
The like results for `CCn1nc(C)c2c1CCN(C(C(=O)NC)c1ccccc1)C2CCc1cc(C(F)(F)F)ccc1F` (stereo not drawn) [Example 3, 2-{1-Ethyl-4-[2-(2-fluoro-5-trifluoromethyl-phenyl)-ethyl]-3-methyl-1,4,6,7-tetrahydro-pyrazolo[4,3-c]pyridin-5-yl}-N-methyl-2-phenyl-acetamide] were, in that order, 3 nM and 49 nM.
The like results for `CCn1nc(C)c2c1CCN([C@@H](C(=O)NC)c1ccccc1)[C@H]2CCc1ccc(C)c(F)c1` [Example 32, 2-{1-Ethyl-4-[2-(3-fluoro-4-methyl-phenyl)-ethyl]-3-methyl-1,4,6,7-tetrahydro-pyrazolo[4,3-c]pyridin-5-yl}-N-methyl-2-phenyl-acetamide] were, in that order, 2 nM and 49 nM.
The like results for `CCn1nc(C)c2c1CCN([C@@H](C(=O)NC)c1ccccc1)[C@H]2CCc1ccc(C)cc1C` [Example 35, 2-{4-[2-(2,4-Dimethyl-phenyl)-ethyl]-1-ethyl-3-methyl-1,4,6,7-tetrahydro-pyrazolo[4,3-c]pyridin-5-yl}-N-methyl-2-phenyl-acetamide] were, in that order, 7 nM and 131 nM.
